Patent publication US20260209206A1, “STAT6 DEGRADERS AND USES THEREOF” (Kymera Therapeutics, Inc., priority 2023, published 2026)

Legend:
STAT6 [1] = target: T1, STAT6 (Homo sapiens, UniProt P42226); test: STAT6 MSD degradation in A549 cells; format: cell-based; details: 24 h
T1 construct: endogenous in cells; host or cells: A549 (STAT6-HiBiT), endogenous locus tagged
T1 sequence (P42226 1-847): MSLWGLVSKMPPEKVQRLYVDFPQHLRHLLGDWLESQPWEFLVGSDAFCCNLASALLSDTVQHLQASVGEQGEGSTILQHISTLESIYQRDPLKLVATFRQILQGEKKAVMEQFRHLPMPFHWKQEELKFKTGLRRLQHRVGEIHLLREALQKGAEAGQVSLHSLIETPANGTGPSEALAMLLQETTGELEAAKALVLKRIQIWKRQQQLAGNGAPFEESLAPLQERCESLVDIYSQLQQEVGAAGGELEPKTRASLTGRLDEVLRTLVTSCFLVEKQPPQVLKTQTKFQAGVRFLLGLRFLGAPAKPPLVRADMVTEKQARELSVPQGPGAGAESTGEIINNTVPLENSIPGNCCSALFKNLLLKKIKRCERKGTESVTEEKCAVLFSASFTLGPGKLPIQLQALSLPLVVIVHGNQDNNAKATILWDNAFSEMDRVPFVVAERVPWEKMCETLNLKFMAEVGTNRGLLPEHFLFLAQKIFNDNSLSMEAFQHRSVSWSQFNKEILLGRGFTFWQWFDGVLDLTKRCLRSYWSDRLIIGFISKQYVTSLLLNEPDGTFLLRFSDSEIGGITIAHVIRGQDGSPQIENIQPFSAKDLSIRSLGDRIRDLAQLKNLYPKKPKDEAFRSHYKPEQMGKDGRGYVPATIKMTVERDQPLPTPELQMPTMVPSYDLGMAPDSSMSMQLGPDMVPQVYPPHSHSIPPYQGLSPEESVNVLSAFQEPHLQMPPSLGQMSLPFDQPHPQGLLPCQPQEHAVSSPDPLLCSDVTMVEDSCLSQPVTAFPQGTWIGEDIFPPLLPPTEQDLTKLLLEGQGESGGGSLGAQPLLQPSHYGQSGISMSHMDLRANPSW
Experimental: Degradation of STAT6 in cells was quantitatively measured using Meso Scale Discovery (MSD) technology. A549 cells were seeded in 96-well plates with a density of 1.5×10e4 to 5×10e5 cells per well in 100 μl fresh media. Compounds were then added to the assay plates with a final top concentration of up to 10 uM in a 1:3 dilution series with total of 9 doses. The assay plates were then incubated for 4 to 24 hours at 37° C. under 5% CO2. The assay plates were then centrifuged for 5 minutes and the cell pellets were treated with 100 μl/well RIPA lysis buffer (Boston Bioproducts, BP-115D) with protease and phosphatase inhibitors (Roche, 05892791001 and 04906837001). To prepare the MSD assay plates (MSD, L15XA), the plates were coated with the capture antibody (Abnova, H00006778) in PBS, at 40 μl/well. The plates were then incubated overnight at 4° C., washed 1 time with […] TBST buffer (Cell Signaling Technology, #9997S) and blocked with 150 μl/well blocking buffer (MSD, R93BA-4). Cell lysates were then added to MSD assay plates and the plates were incubated at room temperature for 1 hour. The plates were then washed 3 times with 150 μl/well TBST buffer and 25 μl/well primary detection antibody (Cell Signaling Technology, #5397S). The assay plates were then incubated at room temperature for 1 hour, washed 3 times with 150 μl/well TBST buffer, and 25 μl/well secondary detection antibody, SULFO-TAG anti-rabbit antibody (MSD, R32AB-1) were added. The assay plates were then incubated at room temperature for 1 hour, washed 3 times with 150 μl/well TBST buffer, and 150 μl/well MSD reading buffer (MSD, R92TC-2) were added. The plates were then analyzed by an MSD reader. The data was analyzed by GraphPad Prism and the dose dependent STAT6 degradation was fit using the four-parameter inhibitor vs. response nonlinear regression.
The letter codes for DC50 (nM) include: A (<1 nM); B (1-10 nM); C (>10-100 nM); D (>100-1000 nM); E (>1000 nM); and F (not tested). The letter codes for Dmax (%) include: A (>90%); B (>70-90%); C (>50-70%); D (<50%); and E (not tested).

[2] = target: T2, biotinylated truncated STAT6 (123-632)-avi (Homo sapiens, UniProt P42226); test: STAT6 HTRF binding assay; details: 0.15 nM STAT6 (123-632)-avi, 20 nM fluorescein-labeled probe, 30 minutes at room temperature
T2 construct: 0.15 nM biotinylated truncated STAT6 (123-632)-avi purified from E. coli; made in house; host or cells: E. coli
T2 sequence (P42226 123-632 limits assumed): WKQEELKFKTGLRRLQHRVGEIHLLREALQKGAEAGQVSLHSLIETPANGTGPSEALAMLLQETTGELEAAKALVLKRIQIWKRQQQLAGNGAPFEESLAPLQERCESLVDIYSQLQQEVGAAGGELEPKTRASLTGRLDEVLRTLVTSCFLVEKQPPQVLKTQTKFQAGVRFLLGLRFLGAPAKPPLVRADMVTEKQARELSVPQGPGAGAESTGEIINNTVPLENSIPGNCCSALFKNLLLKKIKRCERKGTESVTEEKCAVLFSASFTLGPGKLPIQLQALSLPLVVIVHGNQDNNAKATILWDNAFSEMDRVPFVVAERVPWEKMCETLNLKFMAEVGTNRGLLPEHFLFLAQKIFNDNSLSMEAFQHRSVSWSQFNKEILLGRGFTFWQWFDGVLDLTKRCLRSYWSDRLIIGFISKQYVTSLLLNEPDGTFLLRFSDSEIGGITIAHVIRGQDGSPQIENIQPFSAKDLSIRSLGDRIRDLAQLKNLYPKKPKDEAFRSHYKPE
Experimental: HTRF binding assays were perforned using 0.15 nM biotinylated truncated STAT6 (123-632)-avi purified from E. coli, 1× Streptavidin-terbium (CisBio) prepared by mixing SA-Tb in PPI detection buffer (CisBio), 20 nM proprietary fluorescein-labeled probe, and test compounds in assay buffer consisting of 50 mM HEPES-Na pH 7.5, 100 mM NaCl, 1 mM EDTA, 2 mM DTT, 0.1% Tween-20 with a final volume of 20 uL. Compound stocks were dissolved at 10 mM in 100% DMSO and 11 point titration with 3 fold serial dilution was performed in white, opaque 384 well microplates. Reaction plates were incubated at room temperature for 30 minutes. Plates were centrifuged at low rpm for 5 mins, and the ratio of fluorescence intensities were measured at emission wavelengths for fluorescein acceptor (520 nm) and terbium donor (495 nm) on Envision Plate reader. % Inhibition was calculated from the 520/495 ratio generated by using proprietary positive control compound for 100% inhibition and DMSO only reactions for 0% inhibition. Data was processed and dose response curves were generated using GraphPad Prism to determine the concentration required for inhibiting 50% of the HTRF signal (IC50).
The letter codes for IC50 (μM) include: A (<0.1 μM); B (0.1-1 μM); C (>1-10 μM); D (>10-100 μM); E (>100 μM); and F (not tested).

STAT6 [3] = target: T1, STAT6; test: STAT6 HiBiT degradation in A549 (STAT6-HiBiT) cells; format: cell-based; details: 24 h
Experimental: Degradation of STAT6 in endogenously tagged STAT6-HiBiT A549 cells was quantitatively measured using the Nano-Glo HiBiT Lytic Detection System (Promega, 3040). A549 (STAT6-HiBiT) cells were seeded in 384-well plates with a density of 1.25k cells per well in 20 μl fresh media. Compounds were then added to the assay plates using the Apricot S3 with a final top concentration of up to 10 uM in a 4-fold dilution series with total of 10 doses. The assay plates were then incubated for 24 hours at 37° C. under 5% CO2. At the assay endpoint, 20 μL of Nano-Glo HiBiT Lytic Reagent was added to each well and agitated on a plate shaker at 300 rpm for 10 minutes at room temperature. Luminescence was read on PHERAStar FSX Instrument (Is integration time). The data was analyzed by GraphPad Prism and the dose dependent STAT6 degradation was fit using the four-parameter inhibitor vs. response nonlinear regression.
The letter codes for DC50 (nM) include: A (<1 nM): B (1-10 nM); C (>10-100 nM); D (>100-1000 nM); E (>1000 nM); and F (not tested). The letter codes for Dmax (%) include: A (>90%); B (>70-90%); C (>50-70%); D (<50%): and E (not tested).

CN(C)C(=O)c1cc2ccc(C3=CCCN(C(=O)C4Cc5c(cccc5OCCOCCOCCOCCOCCc5cccc6c5n(C)c(=O)n6C5CCC(=O)NC5=O)CN4C=O)C3)cc2[nH]1 (stereo not drawn) [I-61]
DC50 (STAT6 [1]): > 1000 nM | Dmax (STAT6 [1]): < 50%

CN(C)C(=O)c1cc2ccc(C3=CCCN(C(=O)C4Cc5c(cccc5OCCOCCOCCOCCc5cccc6c5n(C)c(=O)n6C5CCC(=O)NC5=O)CN4C=O)C3)cc2[nH]1 (stereo not drawn) [I-98]
IC50 [2]: 10 to 100 µM | DC50 (STAT6 [1]): > 1000 nM | Dmax (STAT6 [1]): < 50%

CN(C)C(=O)c1cc2ccc(C3=CCCN(C(=O)C4Cc5c(cccc5OCCOCCOCCOCCOCCc5ccc6c(c5)n(C)c(=O)n6C5CCC(=O)NC5=O)CN4C=O)C3)cc2[nH]1 (stereo not drawn) [I-105]
DC50 (STAT6 [1]): > 1000 nM | Dmax (STAT6 [1]): < 50%

COc1cc(N2CCN(CCc3cccc4c3n(C)c(=O)n4C3CCC(=O)NC3=O)CC2)ccc1-c1cc(C2=CCCN(C(=O)CCn3ccnn3)C2)c(F)c2cnccc12 (stereo not drawn) [I-1270]
IC50 [2]: 1 to 10 µM | DC50 (STAT6 [3]): > 1000 nM | Dmax (STAT6 [3]): < 50%

COc1cc(N2CCN(CCc3cccc4c3n(C)c(=O)n4C3CCC(=O)NC3=O)CC2)ccc1-c1cc(C2=CCCN(C(=O)CCn3ccnn3)C2)c(F)c2ccncc12 (stereo not drawn) [I-1271]
IC50 [2]: 1 to 10 µM | DC50 (STAT6 [3]): > 1000 nM | Dmax (STAT6 [3]): < 50%

COc1cc(N2CCN(CCc3cccc4c3n(C)c(=O)n4C3CCC(=O)NC3=O)CC2)ccc1-c1cc(Nc2ccccn2)c(F)c(C2=CCCN(C(=O)CCn3ccnn3)C2)c1 (stereo not drawn) [I-1272]
IC50 [2]: 0.1 to 1 µM | DC50 (STAT6 [3]): < 1 nM | Dmax (STAT6 [3]): > 90%

COc1cc(N2CCN(CCc3cccc4c3n(C)c(=O)n4C3CCC(=O)NC3=O)CC2)ccc1-c1cc(C2=CCCN(C(=O)CCn3ccnn3)C2)ccc1C(=O)N(C)C (stereo not drawn) [I-1282]
IC50 [2]: 10 to 100 µM | DC50 (STAT6 [3]): > 1000 nM | Dmax (STAT6 [3]): < 50%

COc1cc(N2CCN(CCc3cccc4c3n(C)c(=O)n4C3CCC(=O)NC3=O)CC2)ccc1-c1cc(C2CCCCN(C(=O)CCn3ccnn3)C2)c(F)c2[nH]c(C(=O)N(C)C)cc12 (stereo not drawn) [I-1292]
DC50 (STAT6 [3]): < 1 nM | Dmax (STAT6 [3]): > 90%

COc1cc(N2CCN(CCc3cccc4c3n(C)c(=O)n4C3CCC(=O)NC3=O)CC2)ccc1-c1cc(C2=CCCN(C(=O)CCn3ccnn3)C2)cc2ccc(C(=O)N(C)C)cc12 (stereo not drawn) [I-1293]
IC50 [2]: < 0.1 µM | DC50 (STAT6 [3]): < 1 nM | Dmax (STAT6 [3]): > 90%

COc1cc(N2CCN(CCc3cccc4c3n(C)c(=O)n4C3CCC(=O)NC3=O)CC2)ccc1-c1cc(-c2cccc(C(=O)N(C)C)c2)c(F)c2[nH]c(C(=O)N(C)C)cc12 (stereo not drawn) [I-1302]
IC50 [2]: 1 to 10 µM | DC50 (STAT6 [3]): 1 to 10 nM | Dmax (STAT6 [3]): 70 to 90%

COc1cc(N2CCN(CCc3cccc4c3n(C)c(=O)n4C3CCC(=O)NC3=O)CC2)ccc1-c1cc(C2=CCCN(C(=O)CCn3ccnn3)C2)ccc1-n1ccccc1=O (stereo not drawn) [I-1309]
DC50 (STAT6 [3]): > 1000 nM | Dmax (STAT6 [3]): < 50%

COc1cc(N2CCN(CCc3cccc4c3n(C)c(=O)n4C3CCC(=O)NC3=O)CC2)ccc1-c1cc(C(=O)N(C)C)ccc1C1=CCCN(C(=O)CCn2ccnn2)C1 (stereo not drawn) [I-1323]
IC50 [2]: 0.1 to 1 µM | DC50 (STAT6 [3]): 100 to 1000 nM | Dmax (STAT6 [3]): 70 to 90%

COc1cc(N2CCN(CCc3cccc4c3n(C)c(=O)n4C3CCC(=O)NC3=O)CC2)ccc1-c1cc(NC(=O)CCn2ccnn2)ccc1-c1ncc(C(=O)N(C)C)[nH]1 (stereo not drawn) [I-1324]
IC50 [2]: 10 to 100 µM | DC50 (STAT6 [3]): > 1000 nM | Dmax (STAT6 [3]): < 50%

COc1cc(N2CCN(CCc3cccc4c3n(C)c(=O)n4C3CCC(=O)NC3=O)CC2)ccc1-c1cc(C2=CCCN(C(=O)CCn3ccnn3)C2)cc2c1CN(C(=O)N(C)C)C2 (stereo not drawn) [I-1334]
IC50 [2]: 1 to 10 µM | DC50 (STAT6 [3]): 10 to 100 nM | Dmax (STAT6 [3]): 70 to 90%

COc1cc(N2CCN(CCc3cccc4c3n(C)c(=O)n4C3CCC(=O)NC3=O)CC2)ccc1-c1cc(C2=CCCN(C(=O)CCn3ccnn3)C2)cnc1CNC(=O)N(C)C (stereo not drawn) [I-1336]
IC50 [2]: 1 to 10 µM | DC50 (STAT6 [3]): > 1000 nM | Dmax (STAT6 [3]): < 50%

COc1cc(N2CCN(CCc3cccc4c3n(C)c(=O)n4C3CCC(=O)NC3=O)CC2)ccc1-c1cc(C2=CCCN(C(=O)CCn3ccnn3)C2)cc2cc(C(=O)N(C)C)cnc12 (stereo not drawn) [I-1338]
IC50 [2]: 10 to 100 µM | DC50 (STAT6 [3]): > 1000 nM | Dmax (STAT6 [3]): < 50%

COc1cc(N2CCN(CCc3cccc4c3n(C)c(=O)n4C3CCC(=O)NC3=O)CC2)ccc1-c1cc(C2=CCCN(C(=O)CCn3ccnn3)C2)cc2ccncc12 (stereo not drawn) [I-1401]
IC50 [2]: 10 to 100 µM
